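These data come from cells grown in 96-well plates and exposed to compound for 48 hours at five concentrations. At the GI50, growth is halved.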 Active and inactive are the calls of the source. Cut-off read from the data, not from the text of the source: active = GI50 up to about 1.1 µM and inactive = higher.
Tests used:
Assay in all cases: inhibition of tumour cell growth, NCI panel, 48 h
HCT-15 = system: HCT-15
U-251 = system: U-251
OVCAR-5 = system: OVCAR-5
PC-3 = system: PC-3
SR = system: SR
COLO 205 = system: COLO 205
K562 = system: K562
MDA-MB-231 = system: MDA-MB-231
T47D = system: T47D
SK-OV-3 = system: SK-OV-3
LOX IMVI = system: LOX IMVI
SNB-75 = system: SNB-75
M14 = system: M14
MDA-MB-435 = system: MDA-MB-435
KM12 = system: KM12
HT-29 = system: HT-29
CAKI-1 = system: CAKI-1
HL-60 = system: HL-60
SK-MEL-2 = system: SK-MEL-2
HOP-92 = system: HOP-92

Row | Structure (SMILES) | GI50 (HCT-15) | GI50 (U-251) | GI50 (OVCAR-5) | GI50 (PC-3) | GI50 (SR) | GI50 (COLO 205) | GI50 (K562) | GI50 (MDA-MB-231) | GI50 (T47D) | GI50 (SK-OV-3) | GI50 (LOX IMVI) | GI50 (SNB-75) | GI50 (M14) | GI50 (MDA-MB-435) | GI50 (KM12) | GI50 (HT-29) | GI50 (CAKI-1) | GI50 (HL-60) | GI50 (SK-MEL-2) | GI50 (HOP-92)
1 | O=C(O)CNCCc1ccccc1 | > 100 µM | > 100 µM (inactive) | > 100 µM (inactive) | > 100 µM (inactive) | > 100 µM (inactive) | > 100 µM (inactive) | > 100 µM (inactive) | > 100 µM (inactive) | > 100 µM (inactive) | > 100 µM (inactive) | > 100 µM (inactive) | > 100 µM (inactive) | > 100 µM (inactive) | > 100 µM (inactive) | > 100 µM (inactive) | > 100 µM (inactive) | > 100 µM (inactive) | > 100 µM (inactive) | > 100 µM (inactive) | > 100 µM (inactive)
2 | Cc1nc2cc(/N=N/c3c(C)noc3C)ccc2[nH]1 | 27.2 µM | 28.4 µM (inactive) | 28 µM (inactive) | 27.6 µM (inactive) | 16.9 µM (inactive) | 15.1 µM (inactive) | 35.6 µM (inactive) | 28.2 µM (inactive) | 1.67 µM (inactive) | 18.9 µM (inactive) | 16.6 µM (inactive) | 5.28 µM (inactive) | 26.5 µM (inactive) | 21.3 µM (inactive) | 49.8 µM (inactive) | 17.7 µM (inactive) | 18.9 µM (inactive) | 13.1 µM (inactive) | 34.8 µM (inactive) | 14.9 µM (inactive)
3 | CN(C)/N=C1\CC(c2ccccc2)C(C#N)(C#N)C1(C#N)C#N (stereo not given) | 15.4 µM | 35.3 µM (inactive) | 25.6 µM (inactive) | 19 µM (inactive) | 18.5 µM (inactive) | 5.56 µM (inactive) | 3.2 µM (inactive) | 21.7 µM (inactive) | 21 µM (inactive) | 50.1 µM (inactive) | 27.5 µM (inactive) | 15.7 µM (inactive) | 17.4 µM (inactive) | 27.6 µM (inactive) | 49.3 µM (inactive) | 26.1 µM (inactive) | 8.63 µM (inactive) | 2.5 µM (inactive) | 21 µM (inactive) | 14.8 µM (inactive)
4 | O=C(O)CCS/C(=C\C(SCCC(=O)O)c1ccc(Cl)cc1)c1ccc(Cl)cc1 (stereo not given) | 30.8 µM | 33.5 µM (inactive) | > 100 µM (inactive) | 61 µM (inactive) | 29.4 µM (inactive) | 21.4 µM (inactive) | 35.1 µM (inactive) | 71.4 µM (inactive) | 41.9 µM (inactive) | > 100 µM (inactive) | 25.5 µM (inactive) | 78.3 µM (inactive) | 47.9 µM (inactive) | 36.4 µM (inactive) | 25.6 µM (inactive) | 43.6 µM (inactive) | 37.2 µM (inactive) | 36.7 µM (inactive) | 26.5 µM (inactive) | 25.8 µM (inactive)
5 | NC(CO)C(=O)NCC(=O)O (stereo not given) | > 100 µM | > 100 µM (inactive) | > 100 µM (inactive) | > 100 µM (inactive) | > 100 µM (inactive) | > 100 µM (inactive) | > 100 µM (inactive) | > 100 µM (inactive) | > 100 µM (inactive) | > 100 µM (inactive) | > 100 µM (inactive) | > 100 µM (inactive) | > 100 µM (inactive) | > 100 µM (inactive) | > 100 µM (inactive) | > 100 µM (inactive) | > 100 µM (inactive) | > 100 µM (inactive) | > 100 µM (inactive) | > 100 µM (inactive)
6 | NC(CCCCCP(=O)(c1ccccc1)C1C=CC=CC1)C(=O)O (stereo not given) | > 100 µM | > 100 µM (inactive) | > 100 µM (inactive) | > 100 µM (inactive) | > 100 µM (inactive) | > 100 µM (inactive) | > 100 µM (inactive) | > 100 µM (inactive) | 57.8 µM (inactive) | > 100 µM (inactive) | > 100 µM (inactive) | > 100 µM (inactive) | > 100 µM (inactive) | > 100 µM (inactive) | > 100 µM (inactive) | > 100 µM (inactive) | > 100 µM (inactive) | > 100 µM (inactive) | > 100 µM (inactive) | > 100 µM (inactive)
7 | COc1ccc(C[C@@H]2OC3(C=CC(=O)CC3Sc3ccccc3)O[C@H]2Cc2ccc(OC)cc2)cc1 (stereo not given in full) | 0.993 µM | 1.42 µM (inactive) | 1.14 µM (inactive) | 1.72 µM (inactive) | 0.187 µM (active) | 1.85 µM (inactive) | 1.9 µM (inactive) | 2.5 µM (inactive) | 0.813 µM (active) | 3.15 µM (inactive) | 0.458 µM (active) | 1.69 µM (inactive) | 1.16 µM (inactive) | 1.9 µM (inactive) | 2.11 µM (inactive) | 1.79 µM (inactive) | 2.05 µM (inactive) | 1.12 µM (active) | 1.53 µM (inactive) | 1.14 µM (inactive)
8 | CCCCCC(/C=C/[C@@H]1CC(=O)C[C@H]1O[Si](C)(C)C(C)(C)C)OCOCCOC (stereo not given in full) | 3.86 µM | 2.52 µM (inactive) | 10 µM (inactive) | 4.16 µM (inactive) | 1.5 µM (inactive) | 5.2 µM (inactive) | 2.4 µM (inactive) | 4.48 µM (inactive) | 11.1 µM (inactive) | 17 µM (inactive) | 2.7 µM (inactive) | 2.19 µM (inactive) | 4.04 µM (inactive) | 2.02 µM (inactive) | 3 µM (inactive) | 3.48 µM (inactive) | 3.07 µM (inactive) | > 100 µM (inactive) | 4.22 µM (inactive) | 1.97 µM (inactive)
9 | O=c1c2cccnc2[nH]c2ccc3cn[nH]c3c12 | 9.42 µM | > 10 µM (inactive) | > 10 µM (inactive) | > 10 µM (inactive) | 3.29 µM (inactive) | > 10 µM (inactive) | > 10 µM (inactive) | 8.53 µM (inactive) | > 10 µM (inactive) | > 10 µM (inactive) | 5.58 µM (inactive) | 7.89 µM (inactive) | 7.14 µM (inactive) | > 10 µM (inactive) | 5.05 µM (inactive) | > 10 µM (inactive) | 8.77 µM (inactive) | 4.49 µM (inactive) | > 10 µM (inactive) | > 10 µM (inactive)
10 | Cc1ccccc1CN1CC2=C(CCN(Cc3ccccc3)C2=O)N2CCN=C12 | 5.04 µM | 4.8 µM (inactive) | 8.41 µM (inactive) | 3.58 µM (inactive) | 4.59 µM (inactive) | 1.86 µM (inactive) | 2.96 µM (inactive) | 4.45 µM (inactive) | 4.8 µM (inactive) | 7.78 µM (inactive) | 3.49 µM (inactive) | 6.08 µM (inactive) | 6.4 µM (inactive) | 4.74 µM (inactive) | 46.2 µM (inactive) | 5.31 µM (inactive) | 4.69 µM (inactive) | 3.78 µM (inactive) | 4.81 µM (inactive) | 21.6 µM (inactive)
11 | Nc1ncnc2c1ncn2C1C=C(CO)C(O)C1O (stereo not given) | 0.468 µM | 10.4 µM (inactive) | 7.5 µM (inactive) | 6.92 µM (inactive) | 0.0254 µM (active) | 3.32 µM (inactive) | 0.0452 µM (active) | 2.19 µM (inactive) | 1.64 µM (inactive) | 8.18 µM (inactive) | 3 µM (inactive) | 7.55 µM (inactive) | 9.57 µM (inactive) | 3.08 µM (inactive) | 0.264 µM (active) | 2.06 µM (inactive) | 13.1 µM (inactive) | 0.34 µM (active) | 29.7 µM (inactive) | 7.55 µM (inactive)

— ChEMBL document CHEMBL1201862, “PubChem BioAssay data set” (2004)
